“And” between values parts separate entries of the source, which are not always exact repeats. Identical values can stand only once. Toxic doses and inconclusive results are not listed. No stated cut-off is given here; in the data, active means T/C of 150% or more; inactive means T/C below 125%.
System: L1210 leukemia ip in BDF1 mice, survival T/C
Assay: NCI In Vivo Anticancer Drug Screen. Data for tumor model L1210 Leukemia (intraperitoneal) in B6D2F1 (BDF1) mice
Details: endpoint: mean survival time, higher = longer survival
Summary of the method: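 Mice bearing the transplanted tumor received compound or vehicle. Survival of the treated group was divided by that of the vehicle-treated control group to give the ratio.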

[1] = dose: 25.0 mg/kg/injection, schedule: Q01DX009 (ip), vehicle: saline
[2] = dose: 100.0 mg/kg/injection, schedule: Q01DX001 (ip), vehicle: saline
[3] = dose: 200.0 mg/kg/injection, schedule: Q01DX001 (ip), vehicle: saline
[4] = dose: 400.0 mg/kg/injection, schedule: Q01DX001 (ip), vehicle: saline
[5] = dose: 100.0 mg/kg/injection, schedule: Q04DX003 (ip), vehicle: Klucel (hydroxypropylcellulose) (HPC)
[6] = dose: 200.0 mg/kg/injection, schedule: Q04DX003 (ip), vehicle: Klucel (hydroxypropylcellulose) (HPC)
[7] = dose: 100.0 mg/kg/injection, schedule: Q01DX009 (ip), vehicle: saline with Tween-80
[8] = dose: 200.0 mg/kg/injection, schedule: Q01DX009 (ip), vehicle: saline with Tween-80
[9] = dose: 400.0 mg/kg/injection, schedule: Q01DX009 (ip), vehicle: saline with Tween-80
[10] = dose: 100.0 mg/kg/injection, schedule: Q01DX009 (ip), vehicle: saline
[11] = dose: 100.0 mg/kg/injection, schedule: Q04DX003 (ip), vehicle: saline with Tween-80
[12] = dose: 200.0 mg/kg/injection, schedule: Q04DX003 (ip), vehicle: saline with Tween-80
[13] = dose: 400.0 mg/kg/injection, schedule: Q04DX003 (ip), vehicle: saline with Tween-80
[14] = dose: 400.0 mg/kg/injection, schedule: Q04DX003 (ip), vehicle: Klucel (hydroxypropylcellulose) (HPC)
[15] = dose: 100.0 mg/kg/injection, schedule: Q01DX001 (ip), vehicle: carboxymethylcellulose (CMC)
[16] = dose: 200.0 mg/kg/injection, schedule: Q01DX001 (ip), vehicle: carboxymethylcellulose (CMC)
[17] = dose: 400.0 mg/kg/injection, schedule: Q01DX001 (ip), vehicle: carboxymethylcellulose (CMC)
[18] = dose: 50.0 mg/kg/injection, schedule: Q01DX009 (ip), vehicle: saline with Tween-80
[19] = dose: 100.0 mg/kg/injection, schedule: Q04DX002 (ip), vehicle: Klucel (hydroxypropylcellulose) (HPC)
[20] = dose: 200.0 mg/kg/injection, schedule: Q04DX002 (ip), vehicle: Klucel (hydroxypropylcellulose) (HPC)
[21] = dose: 400.0 mg/kg/injection, schedule: Q04DX002 (ip), vehicle: Klucel (hydroxypropylcellulose) (HPC)

Measured: T/C

N#CN=C([S-])[S-].N#CN=C([S-])[S-].[Cu]
inactive: dose: 6.25 mg/kg/injection, schedule: Q01DX009 (ip), vehicle: saline 102 % of control | dose: 12.5 mg/kg/injection, schedule: Q01DX009 (ip), vehicle: saline 96 % of control | [1] 93 % of control

O=C(Nc1ccccc1)NS(=O)(=O)CS(=O)(=O)NC(=O)Nc1ccccc1
inactive: [2] 104 % of control | [3] 102 % of control | [4] 109 % of control

O=C(O)CCC1CCCCC1=O (stereo not drawn)
inactive: dose: 50.0 mg/kg/injection, schedule: Q01DX009 (ip), vehicle: Klucel (hydroxypropylcellulose) (HPC) 104 % of control | dose: 50.0 mg/kg/injection, schedule: Q04DX003 (ip), vehicle: Klucel (hydroxypropylcellulose) (HPC) 98 % of control | dose: 100.0 mg/kg/injection, schedule: Q01DX009 (ip), vehicle: Klucel (hydroxypropylcellulose) (HPC) 95 % of control | [5] 97 % of control | dose: 200.0 mg/kg/injection, schedule: Q01DX009 (ip), vehicle: Klucel (hydroxypropylcellulose) (HPC) 98 % of control | [6] 98 % of control

Cc1ccc(S(=O)(=O)N2CCC(C(=O)O)(c3ccccc3)CC2)cc1
inactive: [7] 117 % of control | [8] 101 % of control | [9] 95 % of control

CC[N+]1(CC)N=C([O-])N(C)C1=O
inactive: [7] 101 % of control | [8] 101 % of control | [9] 103 % of control

Cc1cccc(OCC(O)CN2CCCCC2)c1 (stereo not drawn)
inactive: [1] 94 % of control | dose: 50.0 mg/kg/injection, schedule: Q01DX009 (ip), vehicle: saline 102 % of control and 105 % of control | [10] 120 % of control

CN(C)C(=O)CNc1ccc(S(=O)(=O)c2ccc(Cl)cc2)cc1
inactive: [11] 101 % of control | [12] 101 % of control | [13] 95 % of control

CSc1ccc(NC(=O)C(O)C(O)C(O)C(O)CO)cc1 (stereo not drawn)
inactive: [11] 89 % of control | [12] 100 % of control | [13] 95 % of control

Nc1ncnc2nccnc12
inactive: dose: 25.0 mg/kg/injection, schedule: Q01DX Z (ip), vehicle: saline 103 % of control | dose: 75.0 mg/kg/injection, schedule: Q01DX Z (ip), vehicle: saline 89 % of control

Cc1cc(Br)c2c(C)ccc(C)c2n1
inactive: dose: 2.0 mg/kg/injection, schedule: Q01DX001 (ip), vehicle: saline 98 % of control | dose: 5.0 mg/kg/injection, schedule: Q01DX001 (ip), vehicle: saline 102 % of control | dose: 10.0 mg/kg/injection, schedule: Q01DX001 (ip), vehicle: saline 96 % of control

CC1CCCC(NC(=O)NCCCl)C1 (stereo not drawn)
inactive: [5] 95 % of control | [6] 87 % of control | [14] 98 % of control

Cc1ccc2c(ccc(/C=C/c3ccc(O)c4ncccc34)[n+]2C)c1
inactive: dose: 22.0 mg/kg/injection, schedule: Q01DX009 (ip), vehicle: Klucel (hydroxypropylcellulose) (HPC) 115 % of control | dose: 33.0 mg/kg/injection, schedule: Q01DX009 (ip), vehicle: Klucel (hydroxypropylcellulose) (HPC) 117 % of control | [15] 108 % of control | [16] 124 % of control | [6] 98 % of control | [17] 124 % of control

CSc1nc(N)c(N=Nc2ccc(S(=O)(=O)Nc3occ(C)c3C)cc2)c(=O)[nH]1
inactive: [15] 97 % of control | [16] 92 % of control | [17] 94 % of control

NC(N)=N/N=C/c1ccccc1S(=O)(=O)O
inactive: dose: 15.0 mg/kg/injection, schedule: Q01DX Z (ip), vehicle: saline 92 % of control | dose: 30.0 mg/kg/injection, schedule: Q01DX Z (ip), vehicle: saline 95 % of control | dose: 60.0 mg/kg/injection, schedule: Q01DX Z (ip), vehicle: saline 94 % of control | dose: 60.0 mg/kg/injection, schedule: Q01DX Z (oral), vehicle: other 98 % of control | dose: 120.0 mg/kg/injection, schedule: Q01DX Z (ip), vehicle: saline 86 % of control | dose: 120.0 mg/kg/injection, schedule: Q01DX Z (oral), vehicle: other 101 % of control | dose: 240.0 mg/kg/injection, schedule: Q01DX Z (oral), vehicle: other 97 % of control | dose: 480.0 mg/kg/injection, schedule: Q01DX Z (oral), vehicle: other 98 % of control

CCC(=O)CC(C)CC (stereo not drawn)
inactive: dose: 50.0 mg/kg/injection, schedule: Q01DX001 (ip), vehicle: carboxymethylcellulose (CMC) 94 % of control | [15] 102 % of control | [16] 91 % of control | [17] 102 % of control

CCCCCCCCCCCC(=O)CCCCC
inactive: dose: 100.0 mg/kg/injection, schedule: Q01DX009 (ip), vehicle: other 91 % of control | dose: 200.0 mg/kg/injection, schedule: Q01DX009 (ip), vehicle: other 94 % of control | dose: 400.0 mg/kg/injection, schedule: Q01DX009 (ip), vehicle: other 91 % of control

CC(O)CC(C)(C)c1ccccc1 (stereo not drawn)
inactive: [18] 93 % of control | [7] 93 % of control | [8] 89 % of control

NOC(=O)c1ccc([N+](=O)[O-])cc1
inactive: [19] 94 % of control | [20] 94 % of control | [21] 94 % of control

Cc1cc(C)n(/N=C/c2ccc3c(c2)CCC3)c(=O)c1C#N
inactive: [6] 95 % of control | [14] 90 % of control

O=C(O)c1ccccc1C(=O)c1ccc(CBr)cc1
inactive: dose: 6.25 mg/kg/injection, schedule: Q01DX009 (ip), vehicle: saline with Tween-80 92 % of control | dose: 12.5 mg/kg/injection, schedule: Q01DX009 (ip), vehicle: saline with Tween-80 104 % of control | dose: 25.0 mg/kg/injection, schedule: Q01DX009 (ip), vehicle: saline with Tween-80 97 % of control

ClCCOCCOc1ccc(C2CCCCC2)cc1
inactive: [10] 106 % of control | dose: 200.0 mg/kg/injection, schedule: Q01DX009 (ip), vehicle: saline 97 % of control | dose: 400.0 mg/kg/injection, schedule: Q01DX009 (ip), vehicle: saline 90 % of control

CCOC(=O)c1cnc(C)nc1Nc1ccccc1F
inactive: [5] 105 % of control | [6] 104 % of control

COc1cc2c(cc1OC(C)=O)CCCCC2=O
inactive: [2] 101 % of control | [3] 103 % of control | [4] 101 % of control

COc1ccc(/C=N\NC(=O)c2ccncc2)cc1O
inactive: [19] 118 % of control | [20] 106 % of control | [21] 106 % of control

[O-][n+]1ccccc1C(c1ccccc1)c1ccccc1
inactive: [18] 90 % of control | [7] 90 % of control | [8] 90 % of control

COc1ccc(OC)c2[nH]c(-c3ccccc3)cc12
inactive: [19] 96 % of control | [20] 105 % of control | [21] 93 % of control

O=C(O)c1cc([N+](=O)[O-])ccc1Nc1ccccc1
inactive: [12] 95 % of control

Source: PubChem BioAssay AID248 (DTP/NCI, 2004)
